# Data: PubChem BioAssay (NCI)
#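 Compound exposure: 48 hours, 5 concentrations, 96-well plates. The concentration for 50% growth inhibition is given as GI50. At the TGI there is no net growth.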
# What was measured:
# Experiment in all cases: NCI tumour cell line growth inhibition, 48 h
# MCF7 breast = system: MCF7 breast
# HS 578T breast = system: HS 578T breast
# BT-549 breast = system: BT-549 breast
# MDA-MB-231 breast = system: MDA-MB-231 breast
# T-47D breast = system: T-47D breast
# M19-MEL melanoma = system: M19-MEL melanoma
# KM20L2 colon = system: KM20L2 colon
# DMS 273 small cell lung = system: DMS 273 small cell lung
# DLD-1 colon = system: DLD-1 colon
Compound,TGI (MCF7 breast),TGI (HS 578T breast),TGI (BT-549 breast),TGI (MDA-MB-231 breast),TGI (T-47D breast),TGI (M19-MEL melanoma),TGI (KM20L2 colon),TGI (DMS 273 small cell lung),GI50 (MCF7 breast),GI50 (HS 578T breast),GI50 (BT-549 breast),GI50 (MDA-MB-231 breast),GI50 (T-47D breast),TGI (DLD-1 colon)
OC[C@H]1N[C@H](CO)[C@@H](O)[C@H]1O,> 100 µM,> 100 µM,> 100 µM,> 100 µM,> 100 µM,,,,,,,,,
BrCc1ccc2ccc3ccc(CBr)nc3c2n1,4.87 µM,71.3 µM,,6.86 µM,,14.1 µM,29.3 µM,3.34 µM,,,,,,
CC(=O)c1nc(-c2ccc(C[C@@H](CNC(=O)CN(C)C)NC(=O)c3ccc(OC(C)C)c(Cl)c3)cc2)cn1C,14.4 µM,21.3 µM,19.5 µM,8.75 µM,20.1 µM,,,,0.0398 µM,0.0615 µM,0.285 µM,0.0535 µM,0.0538 µM,
O=C(OCC1=CC(=O)c2ccccc2C1=O)c1ccccc1,26.8 µM,51.7 µM,27 µM,28.5 µM,42.3 µM,,,,13.2 µM,14.3 µM,13.8 µM,14.3 µM,14.6 µM,
COC(=O)c1c(C(=O)O)c(-c2ccccc2)c(-c2ccccc2)c(-c2ccccc2)c1-c1ccccc1,> 100 µM,> 100 µM,> 100 µM,> 100 µM,> 100 µM,,,,> 100 µM,> 100 µM,> 100 µM,> 100 µM,75.7 µM,
CCOC1=C/C(=N\Nc2ccc([N+](=O)[O-])cc2)CCC1,> 100 µM,> 100 µM,43.8 µM,84.6 µM,,,,,,,,,,
CCCCS(=O)(=O)c1cc(Nc2ccc(O)c3c2C(=O)c2ccccc2C3=O)ccc1C,> 100 µM,> 100 µM,> 100 µM,> 100 µM,> 100 µM,,,,1.25 µM,75.5 µM,> 100 µM,1.68 µM,> 100 µM,
COc1cc(C=NCC(=O)CSC(c2ccccc2)c2ccccc2)ccc1O,> 100 µM,5.52 µM,31.6 µM,26.7 µM,12.3 µM,,,,21.2 µM,0.0464 µM,14 µM,12.8 µM,2.86 µM,
Cc1nc(C(=O)OCc2ccccc2)cc(OCc2ccccc2)c1C,43.2 µM,47.9 µM,34.2 µM,34.9 µM,> 100 µM,,,,18.3 µM,18.6 µM,17.9 µM,14.6 µM,18.8 µM,
COc1cccc(C=NC23CC4CC(CC(C4)C2)C3)c1,,,,,,> 100 µM,> 100 µM,> 100 µM,,,,,,
COc1c(OC2OC(C)C(O)C(O)C2O)c(OC)c2oc(-c3ccc(O)cc3)cc(=O)c2c1O (configuration not stated),> 100 µM,> 100 µM,72.6 µM,71.8 µM,> 100 µM,,,,34.4 µM,29.8 µM,25.4 µM,16.5 µM,22.3 µM,
C=C(CN1CCc2ccccc2C1)c1ccc(CCCC(=O)Nc2ccccc2N)cc1,> 100 µM,43.4 µM,,26.3 µM,59.3 µM,,,,8.45 µM,14 µM,,10.2 µM,11.2 µM,
CC(C)C(Br)C(=O)NCC(=O)O (configuration not stated),> 100 µM,> 100 µM,> 100 µM,> 100 µM,> 100 µM,,,,,,,,,
COc1ccc2c(CN3CCCC[C@H]3O)cc3cc4c(cc3c2c1)OCO4,3.22 µM,2.94 µM,4.5 µM,8.43 µM,5.46 µM,,,,0.314 µM,0.663 µM,1.21 µM,0.62 µM,0.393 µM,
CCCCC[C@H]1C/C=C2/C(=O)C=C[C@@H]2C/C=C\CCCC(=O)O1,5.44 µM,16.8 µM,0.468 µM,6.39 µM,,,,,0.0884 µM,0.403 µM,0.147 µM,0.212 µM,,
O=C(Nc1ccccc1)N1C(c2ccccc2)=N[C@@H](c2ccccc2)[C@@H]1c1ccccc1,,,,,,38.7 µM,37.3 µM,,,,,,,35.6 µM
CN(Cc1cnc2nc(N)nc(N)c2n1)c1c(Cl)cc(C(=O)NC(CCC(=O)O)C(=O)O)cc1Cl (configuration not stated),> 100 µM,> 100 µM,> 100 µM,> 100 µM,> 100 µM,,,,< 0.01 µM,8.12 µM,1.4 µM,,,
CCN(CC)c1ccc(/C=N/N=C(N)N)cc1,14.8 µM,26.5 µM,33.9 µM,32.6 µM,24.5 µM,,,,2.62 µM,3.68 µM,6.84 µM,10.9 µM,3.76 µM,
O=C1c2ccccc2-c2c1c1ccccc1c(=O)n2CCNCCNCCNCCNCCn1c2c(c3ccccc3c1=O)C(=O)c1ccccc1-2,1.71 µM,,1.62 µM,1.6 µM,> 100 µM,,,,0.0501 µM,,0.334 µM,0.0846 µM,1.99 µM,
COc1ccc(C2=NNC(c3sc(Cl)nc3Cl)C2)cc1 (configuration not stated),16.4 µM,67.4 µM,9.82 µM,14 µM,8.89 µM,,,,3.28 µM,16.8 µM,2.89 µM,3.12 µM,2.68 µM,
O=C(O)C(Cc1ccccc1)N1C(=O)/C(=C/C(Cl)=C/c2ccc([N+](=O)[O-])cc2)SC1=S (configuration not stated),10.7 µM,> 100 µM,,> 100 µM,,,,,2.38 µM,4.37 µM,,3.35 µM,,
COc1cc(N)c(Cl)cc1C(=O)N[C@@H]1CCN(CCCOc2ccc(F)cc2)C[C@@H]1OC,> 100 µM,> 100 µM,> 100 µM,> 100 µM,> 100 µM,,,,57 µM,> 100 µM,34.9 µM,60.2 µM,27.3 µM,
COc1ccc(-c2cn3ccnc3c(-c3ccc(Cl)cc3)n2)cc1,> 100 µM,48.2 µM,> 100 µM,55.9 µM,,,,,5.56 µM,3.83 µM,16.5 µM,4.13 µM,,
C/C(=N\NC(=S)N1CCCC1)c1ccccn1,7.55 µM,20.5 µM,14.9 µM,16.2 µM,11 µM,,,,< 0.01 µM,0.198 µM,0.018 µM,< 0.0348 µM,< 0.01 µM,
